In patent US4684664A, “Derivatives of β-(4-isocyano-1,2,3,4-diepoxycyclopentyl) acrylic acid” (Kureha Kagaku Kogyo Kabushiki Kaisha, priority 1984, dated 1987):
In brackets after ≈: the same amount, converted by molar mass.

Key:
Format in all cases: cell-based
[1] = system: Staphylococcus aureus FDA 209PJc-1; assay: Antibacterial activity, agar-dilution MIC, organism No. 1; details: Staphylococcus aureus, FDA209PJC1; Organism No. 1, bouillon-agar; read-out: Minimum Inhibitory Concentration
Outline: (§1)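 Read-out is the minimum inhibitory concentration, given as μg/ml of the culture medium, obtained by agar dilution using bouillon agar.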

[2] = system: Staphylococcus aureus Terajima; assay: Antibacterial activity, agar-dilution MIC, organism No. 2; details: Staphylococcus aureus; Organism No. 2, bouillon-agar; read-out: Minimum Inhibitory Concentration
Outline: as §1

[3] = system: Staphylococcus aureus MS 353; assay: Antibacterial activity, agar-dilution MIC, organism No. 3; details: Staphylococcus aureus, MS353; Organism No. 3, bouillon-agar; read-out: Minimum Inhibitory Concentration
Outline: as §1

[4] = system: Streptococcus pyogenes Cook; assay: Antibacterial activity, agar-dilution MIC, organism No. 4; details: Streptococcus pyogenes; Organism No. 4, bouillon-agar; read-out: Minimum Inhibitory Concentration
Outline: as §1

[5] = system: Escherichia coli NIHJ-JC-2; assay: Antibacterial activity, agar-dilution MIC, organism No. 5; details: Escherichia coli, NIHJJC2; Organism No. 5, bouillon-agar; read-out: Minimum Inhibitory Concentration
Outline: as §1

[6] = system: Escherichia coli K12 C600 IAM 1264; assay: Antibacterial activity, agar-dilution MIC, organism No. 6; details: Escherichia coli, IAM1264; Organism No. 6, bouillon-agar; read-out: Minimum Inhibitory Concentration
Outline: as §1

[7] = system: Klebsiella pneumoniae PCI-602; assay: Antibacterial activity, agar-dilution MIC, organism No. 7; details: Klebsiella pneumoniae, PCI602; Organism No. 7, bouillon-agar; read-out: Minimum Inhibitory Concentration
Outline: as §1

[8] = system: Salmonella typhimurium IID 971; assay: Antibacterial activity, agar-dilution MIC, organism No. 8; details: Salmonella enterica; Organism No. 8, bouillon-agar; read-out: Minimum Inhibitory Concentration
Outline: as §1

Salmonella typhi 901 = assay: Antibacterial activity, agar-dilution MIC, organism No. 9; details: Salmonella enterica, TYPHI, read-out: Minimum Inhibitory Concentration
Outline: as §1

[9] = system: Salmonella paratyphi-A 1015; assay: Antibacterial activity, agar-dilution MIC, organism No. 10; details: Salmonella enterica, PARATYPHI, read-out: Minimum Inhibitory Concentration
Outline: as §1

[10] = system: Salmonella shottmuelleri 8006; assay: Antibacterial activity, agar-dilution MIC, organism No. 11; details: Salmonella, 8006; Organism No. 11, bouillon-agar; read-out: Minimum Inhibitory Concentration
Outline: as §1

[11] = system: Salmonella enteritidis G 14; assay: Antibacterial activity, agar-dilution MIC, organism No. 12; details: Salmonella enterica, ENTERITIDIS; Organism No. 12, bouillon-agar; read-out: Minimum Inhibitory Concentration
Outline: as §1

[12] = system: Serratia marcescens IAM 1184; assay: Antibacterial activity, agar-dilution MIC, organism No. 13; details: Serratia marcescens, IAM1184; Organism No. 13, bouillon-agar; read-out: Minimum Inhibitory Concentration
Excerpt: Agar-dilution method was used for determination of the antibacterial activity and antifungal activity while using bouillon-agar culture medium, and the minimum inhibitory concentration of the specimen was expressed by μg/ml of the culture medium.

[13] = system: Bacillus subtilis ATCC 6633; assay: Antibacterial activity, agar-dilution MIC, organism No. 14; details: Bacillus subtilis, ATCC6633; Organism No. 14, bouillon-agar; read-out: Minimum Inhibitory Concentration
Outline: as §1

[14] = system: Pseudomonas aeruginosa IFO 3445; assay: Antibacterial activity, agar-dilution MIC, organism No. 15; details: Pseudomonas aeruginosa, IFO3445; Organism No. 15, bouillon-agar; read-out: Minimum Inhibitory Concentration
Outline: as §1

[15] = system: Pseudomonas aeruginosa NCTC 10490; assay: Antibacterial activity, agar-dilution MIC, organism No. 16; details: Pseudomonas aeruginosa, NCTC10490; Organism No. 16, bouillon-agar; read-out: Minimum Inhibitory Concentration
Outline: as §1

[16] = system: Pseudomonas aeruginosa PAO 1; assay: Antibacterial activity, agar-dilution MIC, organism No. 17; details: Pseudomonas aeruginosa, PAO1; Organism No. 17, bouillon-agar; read-out: Minimum Inhibitory Concentration
Outline: as §1

[17] = system: Proteus morganii IFO 3848; assay: Antibacterial activity, agar-dilution MIC, organism No. 18; details: Morganella morganii, IFO3848; Organism No. 18, bouillon-agar; read-out: Minimum Inhibitory Concentration
Outline: as §1

[18] = system: Proteus mirabilis IFO 3849; assay: Antibacterial activity, agar-dilution MIC, organism No. 19; details: Proteus mirabilis, IFO3849; Organism No. 19, bouillon-agar; read-out: Minimum Inhibitory Concentration
Outline: as §1

Proteus vulgaris OX-19 = assay: Antibacterial activity, agar-dilution MIC, organism No. 20; details: Proteus vulgaris, OX19; Organism No. 20, bouillon-agar; read-out: Minimum Inhibitory Concentration
Outline: as §1

Proteus vulgaris HX-19 = assay: Antibacterial activity, agar-dilution MIC, organism No. 21; details: Proteus vulgaris, HX19; Organism No. 21, bouillon-agar; read-out: Minimum Inhibitory Concentration
Outline: as §1

[19] = system: Proteus rettgeri IFO 3850; assay: Antibacterial activity, agar-dilution MIC, organism No. 22; details: Providencia rettgeri, IFO3850; Organism No. 22, bouillon-agar; read-out: Minimum Inhibitory Concentration
Outline: as §1

[20] = system: Enterobacter aerogenes ATCC 13048; assay: Antibacterial activity, agar-dilution MIC, organism No. 23; details: Klebsiella aerogenes, ATCC13048; Organism No. 23, bouillon-agar; read-out: Minimum Inhibitory Concentration
Outline: as §1

Enterobacter cloacae 963 = assay: Antibacterial activity, agar-dilution MIC, organism No. 24; details: Enterobacter cloacae, 963; Organism No. 24, bouillon-agar; read-out: Minimum Inhibitory Concentration
Outline: as §1

[21] = system: Micrococcus luteus ATCC 9341; assay: Antibacterial activity, agar-dilution MIC, organism No. 25; details: Micrococcus luteus, ATCC9341; Organism No. 25, bouillon-agar; read-out: Minimum Inhibitory Concentration
Outline: as §1

[22] = system: Mycoplasma pneumoniae IID817; assay: Antimycoplasmal activity, MIC by phenol red colour change, organism No. 28; details: Mycoplasma, IID817; Organism No. 28, PPLO broth + 1% glucose, 37° C.; read-out: Minimum Inhibitory Concentration (MIC)
Experimental: Mycoplasma pneumoniae IID817 was used as the test microorganism in a culture medium prepared by adding 1% of glucose to "PPLO broth (manufactured by Difco Co.) liquid culture medium" at 37° C. with phenol red as an indicator, thereby culturing the test microorganism.

[23] = system: Candida albicans IAM 4905; assay: Antifungal activity, agar-dilution MIC, organism No. 29; details: Candida albicans, IAM4905; Organism No. 29, bouillon-agar; read-out: Minimum Inhibitory Concentration
Outline: as §1

[24] = system: Aspergillus niger IFO 6342; assay: Antifungal activity, agar-dilution MIC, organism No. 30; details: Aspergillus niger, IFO6342; Organism No. 30, bouillon-agar; read-out: Minimum Inhibitory Concentration
Outline: as §1

[25] = system: Streptococcus pyogenes IFO 3340; assay: Antibacterial activity, agar-dilution MIC, organism No. 26; details: Streptococcus pyogenes, IFO3340; Organism No. 26, bouillon-agar; read-out: Minimum Inhibitory Concentration
Outline: as §1

[26] = system: Streptococcus faecium IFO 3826; assay: Antibacterial activity, agar-dilution MIC, organism No. 27; details: Enterococcus faecium, IFO3826; Organism No. 27, bouillon-agar; read-out: Minimum Inhibitory Concentration
Outline: as §1

Row | Compound | MIC [1] | MIC [2] | MIC [3] | MIC [4] | MIC [5] | MIC [6] | MIC [7] | MIC [8] | MIC (Salmonella typhi 901) | MIC [9] | MIC [10] | MIC [11] | MIC [12] | MIC [13] | MIC [14] | MIC [15] | MIC [16] | MIC [17] | MIC [18] | MIC (Proteus vulgaris OX-19) | other results
1 | [C-]#[N+]C12CC3(/C=C/C(=O)NC4=NCCS4)OC3C1O2 (stereo not shown) [compound 66] | 12.5 µg/mL (≈ 45.1 µM) | 25 µg/mL (≈ 90.2 µM) | 12.5 µg/mL (≈ 45.1 µM) | 12.5 µg/mL (≈ 45.1 µM) | 25 µg/mL (≈ 90.2 µM) | 50 µg/mL (≈ 180 µM) | 6.25 µg/mL (≈ 22.5 µM) | 25 µg/mL (≈ 90.2 µM) | 6.25 µg/mL (≈ 22.5 µM) | 12.5 µg/mL (≈ 45.1 µM) | 12.5 µg/mL (≈ 45.1 µM) | 6.25 µg/mL (≈ 22.5 µM) | > 200 µg/mL | 25 µg/mL (≈ 90.2 µM) | > 200 µg/mL | > 200 µg/mL | > 200 µg/mL | 3.13 µg/mL (≈ 11.3 µM) | 200 µg/mL (≈ 721 µM) | 3.13 µg/mL (≈ 11.3 µM) | MIC (Proteus vulgaris HX-19): 3.13 µg/mL (≈ 11.3 µM); MIC [19]: > 200 µg/mL; MIC [20]: > 200 µg/mL; MIC (Enterobacter cloacae 963): > 200 µg/mL; MIC [21]: 0.1 µg/mL (≈ 0.361 µM); MIC [22]: < 0.2 µg/mL; MIC [23]: 25 µg/mL (≈ 90.2 µM); MIC [24]: 50 µg/mL (≈ 180 µM)
2 | [C-]#[N+]C12CC3(/C=C/C(=O)Nc4ccccc4O)OC3C1O2 (stereo not shown) [compound 58] | 3.13 µg/mL (≈ 11 µM) | 3.13 µg/mL (≈ 11 µM) | 3.13 µg/mL (≈ 11 µM) | 12.5 µg/mL (≈ 44 µM) | 12.5 µg/mL (≈ 44 µM) | 12.5 µg/mL (≈ 44 µM) | 0.78 µg/mL (≈ 2.74 µM) | 6.25 µg/mL (≈ 22 µM) | 3.13 µg/mL (≈ 11 µM) | 1.56 µg/mL (≈ 5.49 µM) | 1.56 µg/mL (≈ 5.49 µM) | 3.13 µg/mL (≈ 11 µM) | 12.5 µg/mL (≈ 44 µM) | 12.5 µg/mL (≈ 44 µM) | > 200 µg/mL | > 200 µg/mL | > 200 µg/mL | 1.56 µg/mL (≈ 5.49 µM) | 12.5 µg/mL (≈ 44 µM) | 0.78 µg/mL (≈ 2.74 µM) | MIC (Proteus vulgaris HX-19): 0.78 µg/mL (≈ 2.74 µM); MIC [19]: 1.56 µg/mL (≈ 5.49 µM); MIC [20]: > 200 µg/mL; MIC (Enterobacter cloacae 963): 100 µg/mL (≈ 352 µM); MIC [21]: 0.2 µg/mL (≈ 0.704 µM); MIC [25]: 3.13 µg/mL (≈ 11 µM); MIC [26]: 12.5 µg/mL (≈ 44 µM); MIC [22]: < 0.2 µg/mL; MIC [23]: 12.5 µg/mL (≈ 44 µM); MIC [24]: 12.5 µg/mL (≈ 44 µM)
3 | [C-]#[N+]C12CC3(/C=C/C(=O)OCC(=O)c4ccc(C)cc4)OC3C1O2 (stereo not shown) [compound 6] | 0.39 µg/mL (≈ 1.2 µM) | 25 µg/mL (≈ 76.8 µM) | 0.78 µg/mL (≈ 2.4 µM) | > 100 µg/mL | > 100 µg/mL | > 100 µg/mL | 50 µg/mL (≈ 154 µM) | > 100 µg/mL | 50 µg/mL (≈ 154 µM) | > 100 µg/mL | 50 µg/mL (≈ 154 µM) | > 100 µg/mL | > 100 µg/mL | 100 µg/mL (≈ 307 µM) | > 100 µg/mL | > 100 µg/mL | > 100 µg/mL | 12.5 µg/mL (≈ 38.4 µM) | > 100 µg/mL | 1.56 µg/mL (≈ 4.8 µM) | MIC (Proteus vulgaris HX-19): 0.2 µg/mL (≈ 0.615 µM); MIC [19]: > 100 µg/mL; MIC [20]: > 100 µg/mL; MIC (Enterobacter cloacae 963): > 100 µg/mL; MIC [21]: 0.39 µg/mL (≈ 1.2 µM); MIC [25]: < 100 µg/mL; MIC [26]: 25 µg/mL (≈ 76.8 µM); MIC [22]: < 0.2 µg/mL; MIC [23]: 0.8 µg/mL (≈ 2.46 µM); MIC [24]: 3.13 µg/mL (≈ 9.62 µM)
